# Columns and labels:
# CDK2 [1] = molecular target: T1, CDK2 (Homo sapiens, UniProt P24941); assay: CDK2 HTRF assay: cellular endogenous CDK2 level in OVCAR3 cells; assay type: cell-based; details: 24 hours compound treatment; for DC50: read-out: DC50 (half maximal degradation concentration of CDK2)
# T1 construct: High-Throughput Measurement of Cellular Endogenous CDK2; endogenous in cells; host or cells: OVCAR3
# Outline: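 Endogenous CDK2 degradation in OVCAR3 cells after 24 h compound treatment at 0.3–10,000 nM. Lysates assayed with an HTRF total-CDK2 two-antibody kit, TR-FRET 665/620 ratio normalized to DMSO. DC50 from four-parameter logistic fit, reported as potency bins.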
# CDK2 [2] = molecular target: T1, CDK2; assay: Inhibition of CDK2: phospho-Rb (S807/811) HTRF measurement in OVCAR3 cells; assay type: cell-based; details: 24 h compound treatment, read-out: pRb (nM), IC50 in pRB(S807/811) assay
DC50 (CDK2 [1]),IC50 (CDK2 [2]),DC50 (half maximal degradation concentration of CDK2) (CDK2 [1]),SMILES
< 100 nM,100 to 500 nM,,"O=C1CCC(N2C(=O)c3cc(F)c(N4CCN(Cc5cccc(S(=O)(=O)N6CCC(Nc7ncc(C(F)(F)F)c(-c8cnn(CC(F)F)c8)n7)CC6)c5)CC4)cc3C2=O)C(=O)N1 (centres unmarked) [Example 22, 5-(4-(3-((4-((4-(1-(2,2-difluoroethyl)-1H-pyrazol-4-yl)-5-(trifluoromethyl)-pyrimidin-2-yl)amino)-piperidin-1-yl)sulfonyl)benzyl)piperazin-1-yl)-2-(2,6-dioxopiperidin-3-yl)-6-fluoroiso-indoline-1,3-dione]"
< 100 nM,< 100 nM,,"O=C1CCC(c2ccc(N3CCN(Cc4cccc(S(=O)(=O)N5CCC(Nc6ncc(C(F)(F)F)c(-c7cnn(CC(F)(F)F)c7)n6)CC5)c4)CC3)cc2)C(=O)N1 (centres unmarked) [Example 2, 3-(4-(4-(3-((4-((4-(1-(2,2,2-trifluoro-ethyl)-1H-pyrazol-4-yl)-5-(trifluoro-methyl)pyrimidin-2-yl)amino)piperidin-1-yl)sulfonyl)benzyl)piperazin-1-yl)-phenyl)piperidine-2,6-dione]"
< 100 nM,< 100 nM,,"Cc1ncsc1-c1ccc([C@H](C)NC(=O)[C@@H]2C[C@@H](O)CN2C(=O)[C@@H](NC(=O)CC2CCN(Cc3cccc(S(=O)(=O)N4CCC(Nc5ncc(C(F)(F)F)c(-c6cnn(CC(F)(F)F)c6)n5)CC4)c3)CC2)C(C)(C)C)cc1 [Example 62, (2S,4R)-1-((S)-3,3-dimethyl-2-(2-(1-(3-((4-((4-(1-(2,2,2-trifluoroethyl)-1H-pyrazol-4-yl)-5-(trifluoromethyl)-pyrimidin-2-yl)amino)piperidin-1-yl)-sulfonyl)benzyl)piperidin-4-yl)-acetamido)butanoyl)-4-hydroxy-N-((S)-1-(4-(4-methylthiazol-5-yl)phenyl)-ethyl)pyrrolidine-2-carboxamide]"
< 100 nM,100 to 500 nM,,"Cn1c(S(=O)(=O)N2CCC(Nc3ncc(C(F)(F)F)c(-c4cnn(CC(F)(F)F)c4)n3)CC2)cnc1CN1CCN(c2cc3c(cc2F)C(=O)N(C2CCC(=O)NC2=O)C3=O)CC1 (centres unmarked) [Example 30, 2-(2,6-dioxopiperidin-3-yl)-5-fluoro-6-(4-((1-methyl-5-((4-((4-(1-(2,2,2-trifluoroethyl)-1H-pyrazol-4-yl)-5-(trifluoromethyl)pyrimidin-2-yl)amino)-piperidin-1-yl)sulfonyl)-1H-imidazol-2-yl)methyl)piperazin-1-yl)isoindoline-1,3-dione]"
< 100 nM,< 100 nM,,"Cn1nc(N2CCC(=O)NC2=O)c2ccc(C3CCN(Cc4cccc(S(=O)(=O)N5CC[C@H](Nc6ncc(C(F)(F)F)c(-c7cnn(CC(C)(C)O)c7)n6)[C@H](F)C5)c4)CC3)cc21 (racemic) [Example 70, Rac-1-(6-(1-(3-(((3R,4S)-3-fluoro-4-((4-(1-(2-hydroxy-2-methylpropyl)-1H-pyrazol-4-yl)-5-(trifluoromethyl)-pyrimidin-2-yl)amino)piperidin-1-yl)-sulfonyl)benzyl)piperidin-4-yl)-1-methyl-1H-indazol-3-yl)dihydro-pyrimidine-2,4(1H,3H)-dione]"
,1000 to 10000 nM,no curve,"O=C1CCC(N2C(=O)c3cc(F)c(N4CCN(Cc5cccc(S(=O)(=O)N6CCC(Nc7nccc(-c8cnn(CC(F)(F)F)c8)n7)CC6)c5)CC4)cc3C2=O)C(=O)N1 (centres unmarked) [Example 17, 2-(2,6-dioxopiperidin-3-yl)-5-fluoro-6-(4-(3-((4-((4-(1-(2,2,2-trifluoroethyl)-1H-pyrazol-4-yl)pyrimidin-2-yl)amino)-piperidin-1-yl)sulfonyl)benzyl)-piperazin-1-yl)isoindoline-1,3-dione]"
< 100 nM,< 100 nM,,"O=C1CCN(c2ccc(N3CCN(Cc4cccc(S(=O)(=O)N5CCC(Nc6ncc(C(F)(F)F)c(-c7cnn(CC(F)(F)F)c7)n6)CC5)c4)CC3)nc2)C(=O)N1 [Example 41, 1-(6-(4-(3-((4-((4-(1-(2,2,2-trifluoro-ethyl)-1H-pyrazol-4-yl)-5-(trifluoro-methyl)pyrimidin-2-yl)amino)-piperidin-1-yl)sulfonyl)benzyl)-piperazin-1-yl)pyridin-3-yl)dihydro-pyrimidine-2,4(1H,3H)-dione]"
< 100 nM,< 100 nM,,"O=C1CCC(Nc2ccc(C3CCN(Cc4cccc(S(=O)(=O)N5CCC(Nc6ncc(C(F)(F)F)c(-c7cnn(CC(F)(F)F)c7)n6)CC5)c4)CC3)cc2)C(=O)N1 (centres unmarked) [Example 11, 3-((4-(1-(3-((4-((4-(1-(2,2,2-trifluoro-ethyl)-1H-pyrazol-4-yl)-5-(trifluoro-methyl)pyrimidin-2-yl)amino)-piperidin-1-yl)sulfonyl)benzyl)piperidin-4-yl)-phenyl)amino)-piperidine-2,6-dione]"
< 100 nM,< 100 nM,,"O=C1CCC(NCc2cccc(S(=O)(=O)N3CCC(Nc4ncc(C(F)(F)F)c(-c5cnn(CC(F)(F)F)c5)n4)CC3)c2)C(=O)N1 (centres unmarked) [Example 68, 3-((3-((4-((4-(1-(2,2,2-trifluoroethyl)-1H-pyrazol-4-yl)-5-(trifluoromethyl)-pyrimidin-2-yl)amino)piperidin-1-yl)-sulfonyl)benzyl)amino)piperidine-2,6-dione]"
< 100 nM,< 100 nM,,"CC(Cc1cccc(S(=O)(=O)N2CCC(Nc3ncc(C(F)(F)F)c(-c4cnn(CC(F)(F)F)c4)n3)CC2)c1)CN1CCC(c2ccc3c(N4CCC(=O)NC4=O)nn(C)c3c2)CC1 (centres unmarked) [Example 78, 1-(1-methyl-6-(1-(2-methyl-3-(3-((4-((4-(1-(2,2,2-trifluoroethyl)-1H-pyrazol-4-yl)-5-(trifluoromethyl)-pyrimidin-2-yl)amino)piperidin-1-yl)sulfonyl)-phenyl)propyl)piperidin-4-yl)-1H-indazol-3-yl)dihydro-pyrimidine-2,4(1H,3H)-dione]"
< 100 nM,< 100 nM,,"O=C1CCC(NC2CCN(Cc3cccc(S(=O)(=O)N4CCC(Nc5ncc(C(F)(F)F)c(-c6cnn(CC(F)(F)F)c6)n5)CC4)c3)CC2)C(=O)N1 (centres unmarked) [Example 72, 3-((1-(3-((4-((4-(1-(2,2,2-trifluoro-ethyl)-1H-pyrazol-4-yl)-5-(trifluoromethyl)-pyrimidin-2-yl)amino)-piperidin-1-yl)-sulfonyl)benzyl)piperidin-4-yl)amino)-piperidine-2,6-dione]"
< 100 nM,< 100 nM,,"Cn1nc(N2CCC(=O)NC2=O)c2ccc(C3CCN(CC4CCN(c5cccc(S(=O)(=O)N6CCC(Nc7ncc(C(F)(F)F)c(-c8cnn(CC(F)(F)F)c8)n7)CC6)c5)CC4)CC3)cc21 [Example 50, 1-(1-methyl-6-(1-((1-(3-((4-((4-(1-(2,2,2-trifluoroethyl)-1H-pyrazol-4-yl)-5-(trifluoromethyl)pyrimidin-2-yl)amino)-piperidin-1-yl)sulfonyl)phenyl)-piperidin-4-yl)methyl)piperidin-4-yl)-1H-indazol-3-yl)dihydropyrimidine-2,4(1H,3H)-dione]"
,1000 to 10000 nM,no curve,"O=C1CCC(N2C(=O)c3cc(F)c(N4CCN(Cc5cccc(S(=O)(=O)N6CCC(Nc7ncc(Cl)c(-c8cnn(CC(F)(F)F)c8)n7)CC6)c5)CC4)cc3C2=O)C(=O)N1 (centres unmarked) [Example 9, 5-(4-(3-((4-((5-chloro-4-(1-(2,2,2-trifluoroethyl)-1H-pyrazol-4-yl)-pyrimidin-2-yl)amino)piperidin-1-yl)-sulfonyl)benzyl)piperazin-1-yl)-2-(2,6-dioxopiperidin-3-yl)-6-fluoro-isoindoline-1,3-dione]"
